US6670374B1 (priority 2002, dated 2003)
“Also recorded” adds a separate entry of the source.

Experiments:
[1] = test system: E. coli O157:H7 strain 86-24; set-up: species or system piglets; details: in vivo
[2] = in vivo

O[C@H]1[C@H]2[C@H](O)CCCN2C[C@H]1O [swainsonine]
lowest concentration at which a protective effect from co-incubation was observed (Vero cells): 0.012 μg/well
toxic effects in swainsonine control wells (Vero cells): No toxic effects were observed
progression and severity of disease / outcome at 68 h post challenge [1]: progression of disease was less rapid and for all except one, much less severe; also recorded: Two of the swainsonine-treated pigs were recovering from the disease by 68 h post challenge
adverse effects [2]: no adverse effects
